Tested on: participants with SSc-RP
Assay: Average severity of weekly RP attacks (VAS 0-10 cm scale)
Assay type: in vivo, human
Text: The absolute change in average severity of weekly RP attacks (VAS 0-10 cm scale) from baseline to the end of each Dosing Period was and will be a secondary outcome variable. The sponsor-developed participant-informed diary will be used to record data. Average severity of weekly RP attacks is defined as the total severity scores of RP attacks divided by total number of RP attacks within the last 7 days of each dosing period. Total severity scores of RP attacks during the last 7 days of screening period divided by the total number of RP attacks will be used as baseline for the analysis of all periods. The variable will be calculated similar to frequency data as before.

[1] = Pooled Cilnidipine 20 mg and Cilnidipine 20 mg + Tadalafil 5 mg, n=4, Excluding Outliers, ITT Population - Part A
[2] = Pooled Cilnidipine 20 mg and Cilnidipine 20 mg + Tadalafil 5 mg, n=4, ITT Population - Part A
[3] = Pooled Cilnidipine 20 mg and Cilnidipine 20 mg + Tadalafil 5 mg, Excluding Outliers, ITT Population - Part A
[4] = Pooled Cilnidipine 20 mg and Cilnidipine 20 mg + Tadalafil 5 mg, Excluding Outliers, by Baseline RCS, first subgroup, ITT Population - Part A
[5] = Pooled Cilnidipine 20 mg and Cilnidipine 20 mg + Tadalafil 5 mg, Excluding Outliers, by Baseline RCS, second subgroup, ITT Population - Part A
[6] = Pooled Cilnidipine 20 mg and Cilnidipine 20 mg + Tadalafil 5 mg, ITT Population - Part A
[7] = Pooled Cilnidipine 20 mg and Cilnidipine 20 mg + Tadalafil 5 mg, first Baseline RCS subgroup block (not named), ITT Part A
[8] = Pooled Cilnidipine 20 mg and Cilnidipine 20 mg + Tadalafil 5 mg, first Baseline RCS subgroup block (not named), ITT Part A, score 0-10
[9] = Pooled Cilnidipine 20 mg and Cilnidipine 20 mg + Tadalafil 5 mg, second Baseline RCS subgroup block (not named), ITT Part A
[10] = Pooled Cilnidipine 20 mg and Cilnidipine 20 mg + Tadalafil 5 mg, second Baseline RCS subgroup block (not named), ITT Part A, score 0-10
[11] = Pooled Cilnidipine, n=3, Excluding Outliers, ITT Population - Part A
[12] = Pooled Cilnidipine, n=3, ITT Population - Part A
[13] = Pooled Cilnidipine, n=3, by Baseline RCS, first subgroup, ITT Population - Part A
[14] = Pooled Cilnidipine, first Baseline RCS subgroup block (not named), ITT Part A
[15] = Pooled Cilnidipine, first Baseline RCS subgroup block (not named), ITT Part A, score 0-10

In the case of COCCOC(=O)C1=C(C)NC(C)=C(C(=O)OC/C=C/c2ccccc2)C1c1cccc([N+](=O)[O-])c1 (stereo not shown) [Cilnidipine, cilnidipine], the “Average Severity (0-10) of Weekly Symptomatic RP Attacks, Mean” value [1] is reported as 3.40, the “Average Severity (0-10) of Weekly Symptomatic RP Attacks, Median” value [1] is reported as 3.18 and the “Average Severity of Weekly Symptomatic RP Attacks, Change from Baseline, Mean” value [1] is reported as −1.24. The “Average Severity of Weekly Symptomatic RP Attacks, Change from Baseline, Median” value [1] was −1.06, the “Average Severity of Weekly Symptomatic RP Attacks, Percent Change from Baseline, Mean” value [1] was −24.75% and the “Average Severity of Weekly Symptomatic RP Attacks, Percent Change from Baseline, Median” value [1] was −19.08%. The “Average Severity (0-10) of Weekly Symptomatic RP Attacks, Mean” value [2] was 3.40, the “Average Severity (0-10) of Weekly Symptomatic RP Attacks, Median” value [2] was 3.18 and the “Average Severity of Weekly Symptomatic RP Attacks, Change from Baseline, Mean” value [2] was −1.24. For the same compound, the “Average Severity of Weekly Symptomatic RP Attacks, Change from Baseline, Median” value [2] was −1.06, the “Average Severity of Weekly Symptomatic RP Attacks, Percent Change from Baseline, Mean” value [2] was −24.75% and the “Average Severity of Weekly Symptomatic RP Attacks, Percent Change from Baseline, Median” value [2] was −19.08%. For the same compound, the “Average Severity of Weekly RP Attacks (All Attacks), Change from Baseline, Mean” value [3] was −1.02, the “Average Severity of Weekly RP Attacks (All Attacks), Change from Baseline, Median” value [3] was −0.96 and the “Average Severity of Weekly RP Attacks (All Attacks), Mean” value (from here on “Average Severity … (All Attacks), Mean”) [3] was 3.35. For the same compound, the “Average Severity of Weekly RP Attacks (All Attacks), Median” value (“Average Severity … (All Attacks), Median” for short) [3] was 3.06, the “Average Severity of Weekly RP Attacks (All Attacks), Percent Change from Baseline, Mean” value [3] was −21.83% and the “Average Severity of Weekly RP Attacks (All Attacks), Percent Change from Baseline, Median” value [3] was −16.40%. The “Average Severity of Weekly Symptomatic RP Attacks (Mean)” value [4] was 2.85, the “Average Severity of Weekly Symptomatic RP Attacks (Median)” value [4] was 2.40 and the “Average Severity of Weekly Symptomatic RP Attacks, Change from Baseline, Mean” value [4] was −1.06. For the same compound, the “Average Severity of Weekly Symptomatic RP Attacks, Change from Baseline, Median” value [4] was −0.33, the “Average Severity of Weekly Symptomatic RP Attacks, Percent Change from Baseline, Mean” value [4] was −24.28% and the “Average Severity of Weekly Symptomatic RP Attacks, Percent Change from Baseline, Median” value [4] was −12.02%. The “Average Severity of Weekly Symptomatic RP Attacks (Mean)” value [5] was 5.06, the “Average Severity of Weekly Symptomatic RP Attacks (Median)” value [5] was 5.06 and the “Average Severity of Weekly Symptomatic RP Attacks, Change from Baseline, Mean” value [5] was −1.79. For the same compound, the “Average Severity of Weekly Symptomatic RP Attacks, Change from Baseline, Median” value [5] was −1.79, the “Average Severity of Weekly Symptomatic RP Attacks, Percent Change from Baseline, Mean” value [5] was −26.14% and the “Average Severity of Weekly Symptomatic RP Attacks, Percent Change from Baseline, Median” value [5] was −26.14%. For the same compound, the “Average Severity of Weekly RP Attacks (All Attacks), Change from Baseline, Mean” value [6] was −1.02, the “Average Severity of Weekly RP Attacks (All Attacks), Change from Baseline, Median” value [6] was −0.96 and the “Average Severity … (All Attacks), Mean” value [6] was 3.35. The “Average Severity … (All Attacks), Median” value [6] was 3.06, the “Average Severity of Weekly RP Attacks (All Attacks), Percent Change from Baseline, Mean” value [6] was −21.83% and the “Average Severity of Weekly RP Attacks (All Attacks), Percent Change from Baseline, Median” value [6] was −16.40%. The “Average Severity of Weekly RP Attacks (All Attacks), Percent Change from Baseline, Mean” value [7] was −21.36%, the “Average Severity of Weekly RP Attacks (All Attacks), Percent Change from Baseline, Median” value [7] was −9.57% and the “Average Severity of Weekly RP Attacks (All Attacks), Change from Baseline, Mean” value [8] was −0.84. For the same compound, the “Average Severity of Weekly RP Attacks (All Attacks), Change from Baseline, Median” value [8] was −0.39, the “Average Severity … (All Attacks), Mean” value [8] was 2.78 and the “Average Severity … (All Attacks), Median” value [8] was 2.40. The “Average Severity of Weekly RP Attacks (All Attacks), Percent Change from Baseline, Mean” value [9] was −23.23%, the “Average Severity of Weekly RP Attacks (All Attacks), Percent Change from Baseline, Median” value [9] was −23.23% and the “Average Severity of Weekly RP Attacks (All Attacks), Change from Baseline, Mean” value [10] was −1.53. For the same compound, the “Average Severity of Weekly RP Attacks (All Attacks), Change from Baseline, Median” value [10] was −1.53, the “Average Severity … (All Attacks), Mean” value [10] was 5.06 and the “Average Severity … (All Attacks), Median” value [10] was 5.06. For the same compound, the Severity (Pooled Cilnidipine (n = 7)) was −16%, the “Average Severity (0-10) of Weekly Symptomatic RP Attacks, Mean” value [11] was 2.79 and the “Average Severity (0-10) of Weekly Symptomatic RP Attacks, Median” value [11] was 2.40. The “Average Severity of Weekly Symptomatic RP Attacks, Change from Baseline, Mean” value [11] was −0.87, the “Average Severity of Weekly Symptomatic RP Attacks, Change from Baseline, Median” value [11] was −0.33 and the “Average Severity of Weekly Symptomatic RP Attacks, Percent Change from Baseline, Mean” value [11] was −19.22%. For the same compound, the “Average Severity of Weekly Symptomatic RP Attacks, Percent Change from Baseline, Median” value [11] was −12.02%, the “Average Severity (0-10) of Weekly Symptomatic RP Attacks, Mean” value [12] was 2.79 and the “Average Severity (0-10) of Weekly Symptomatic RP Attacks, Median” value [12] was 2.40. For the same compound, the “Average Severity of Weekly Symptomatic RP Attacks, Change from Baseline, Mean” value [12] was −0.87, the “Average Severity of Weekly Symptomatic RP Attacks, Change from Baseline, Median” value [12] was −0.33 and the “Average Severity of Weekly Symptomatic RP Attacks, Percent Change from Baseline, Mean” value [12] was −19.22%. The “Average Severity of Weekly Symptomatic RP Attacks, Percent Change from Baseline, Median” value [12] was −12.02%, the “Average Severity (0-10) of Weekly Symptomatic RP Attacks, Mean” value [13] was 2.79 and the “Average Severity (0-10) of Weekly Symptomatic RP Attacks, Median” value [13] was 2.40. The “Average Severity of Weekly Symptomatic RP Attacks, Change from Baseline, Mean” value [13] was −0.87, the “Average Severity of Weekly Symptomatic RP Attacks, Change from Baseline, Median” value [13] was −0.33 and the “Average Severity of Weekly Symptomatic RP Attacks, Percent Change from Baseline, Mean” value [13] was −19.22%. For the same compound, the “Average Severity of Weekly Symptomatic RP Attacks, Percent Change from Baseline, Median” value [13] was −12.02%, the “Average Severity of Weekly RP Attacks (All Attacks), Percent Change from Baseline, Mean” value [14] was −17.99% and the “Average Severity of Weekly RP Attacks (All Attacks), Percent Change from Baseline, Median” value [14] was −7.69%. The “Average Severity of Weekly RP Attacks (All Attacks), Change from Baseline, Mean” value [15] was −0.71, the “Average Severity of Weekly RP Attacks (All Attacks), Change from Baseline, Median” value [15] was −0.20 and the “Average Severity … (All Attacks), Mean” value [15] was 2.55. The “Average Severity … (All Attacks), Median” value [15] was 2.40.
